Results from US20230192700A1, “PYRAZOLOPYRAZINES ACTING ON CANCERS VIA INHIBITION OF CDK12” (Bayer Aktiengesellschaft, priority 2020, published 2023).

Each compound was assayed against T1, CDK9/CyclinT1 (Homo sapiens, UniProt P50750) (assay: CDK9/CycT1 high ATP kinase assay (TR-FRET)). Settings: 2 mM ATP (high ATP); median; read-out: CDK9/CyclinT1, 2 mM ATP (high ATP) IC50 - [mol/l] (median).
T1 construct: Recombinant full-length His-tagged human CDK9 and CycT1; His-tag; purchased Life Technologies PV4131; host or cells: insect cells
Format: biochemical
Procedure: 2.5 CDK9/CycT1 High ATP Kinase Assay
CDK9/CycT1 -inhibitory activity of compounds of the present invention at a high ATP concentration after preincubation of enzyme and test compounds was quantified employing the CDK9/CycT1 TR-FRET assay as described in the following paragraphs.
Recombinant full-length His-tagged human CDK9 and CycT1, expressed in insect cells and purified by Ni-NTA affinity chromatography, were purchased from Life Technologies (Cat. No PV4131). As substrate for the kinase reaction biotinylated peptide biotin-Ttds-YISPLKSPYKISEG (C-terminus in amide form) was used which can be purchased e.g. form the company JERINI peptide technologies (Berlin, Germany).
For the assay 50 nanoL of a 100 fold concentrated solution of the test compound in DMSO was pipetted into either a black low volume 384 well microtiter plate or a black 1536 well microtiter plate (both Greiner Bio-One, Frickenhausen, Germany), 2 microL of a solution of CDK9/CycT1 in aqueous assay buffer [50 millimol/L Tris/HCl pH 8.0, 10 millimol/L MgCl2, 1.0 millimol/L dithiothreitol, 0.1 millimol/L sodium ortho-vanadate, 0.01% (v/v) Nonidet-P40 (Sigma)] were added and the mixture was incubated for 15 min at 22° C. to allow pre-binding of the test compounds to the enzyme before the start of the kinase reaction. Then the kinase reaction was started by the addition of 3 microL of a solution of adenosine-tri-phosphate (ATP, 3.3 millimol/L=>final conc. in the 5 microL assay volume is 2 millimol/L) and substrate (1.25 micromol/L =>final conc. in the 5 microL assay volume is 0.75 micromol/L) in assay buffer and the resulting mixture was incubated for a reaction time of 25 min at 22° C. The concentration of CDK9/CycT1 was adjusted depending of the activity of the enzyme lot and was chosen appropriate to have the assay in the linear range, typical concentrations were in the range of 0.5 microg/mL. The reaction was stopped by the addition of 3 microL of a solution of TR-FRET detection reagents (0.33 micromol/L streptavidine-XL665 [Cisbio Bioassays, Codolet, France] and 1.67 nanomol/L anti-RB(pSer807/pSer811)-antibody from BD Pharmingen [#558389] and 2 nanomol/L LANCE EU-W1024 labeled anti-mouse IgG antibody [Perkin-Elmer, product no. AD0077]) in an aqueous EDTA-solution (167 millimol/L EDTA, 0.2% (w/v) bovine serum albumin in 100 millimol/L HEPES pH 7.5).
The resulting mixture was incubated 1 h at 22° C. to allow the formation of complex between the phosphorylated biotinylated peptide and the detection reagents. Subsequently the amount of phosphorylated substrate was evaluated by measurement of the resonance energy transfer from the Eu-chelate to the streptavidine-XL. Therefore, the fluorescence emissions at 620 nm and 665 nm after excitation at 350 nm was measured in a TR-FRET reader, e.g. a Pherastar (BMG Labtechnologies, Offenburg, Germany) or a Viewlux (Perkin-Elmer). The ratio of the emissions at 665 nm and at […] was taken as the measure for the amount of phosphorylated substrate. The data were normalised (enzyme reaction without inhibitor=0% inhibition, all other assay components but no enzyme=100% inhibition).

T1 sequence (P50750 whole entry): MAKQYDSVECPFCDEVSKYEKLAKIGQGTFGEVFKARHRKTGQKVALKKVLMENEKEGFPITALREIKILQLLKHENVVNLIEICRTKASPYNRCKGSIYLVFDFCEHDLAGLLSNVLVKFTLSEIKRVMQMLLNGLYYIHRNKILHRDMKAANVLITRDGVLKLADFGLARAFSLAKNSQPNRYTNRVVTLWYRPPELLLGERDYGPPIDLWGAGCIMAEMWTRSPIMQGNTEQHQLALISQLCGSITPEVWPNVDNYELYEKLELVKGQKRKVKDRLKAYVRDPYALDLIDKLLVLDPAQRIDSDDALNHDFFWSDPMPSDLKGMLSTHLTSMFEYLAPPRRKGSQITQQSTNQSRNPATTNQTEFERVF
T1 sequence (O60563 whole entry partner): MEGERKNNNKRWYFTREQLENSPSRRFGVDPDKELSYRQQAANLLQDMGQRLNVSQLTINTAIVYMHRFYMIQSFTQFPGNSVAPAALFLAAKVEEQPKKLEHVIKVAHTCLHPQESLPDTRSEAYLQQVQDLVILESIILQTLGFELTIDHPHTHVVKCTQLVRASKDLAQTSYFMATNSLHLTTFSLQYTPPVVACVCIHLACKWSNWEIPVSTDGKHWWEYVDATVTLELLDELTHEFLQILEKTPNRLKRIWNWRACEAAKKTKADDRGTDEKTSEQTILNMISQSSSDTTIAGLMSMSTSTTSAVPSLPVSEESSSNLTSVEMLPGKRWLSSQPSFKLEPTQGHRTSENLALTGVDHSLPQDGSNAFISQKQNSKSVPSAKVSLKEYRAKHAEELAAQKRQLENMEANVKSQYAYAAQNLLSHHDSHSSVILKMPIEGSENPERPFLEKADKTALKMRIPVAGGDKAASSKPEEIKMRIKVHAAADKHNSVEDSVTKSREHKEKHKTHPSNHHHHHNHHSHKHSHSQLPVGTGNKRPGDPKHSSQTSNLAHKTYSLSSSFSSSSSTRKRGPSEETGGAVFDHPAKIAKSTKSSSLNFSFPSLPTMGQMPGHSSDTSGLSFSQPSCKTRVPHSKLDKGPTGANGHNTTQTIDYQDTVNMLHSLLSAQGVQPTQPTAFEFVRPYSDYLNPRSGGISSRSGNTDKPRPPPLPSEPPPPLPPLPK

Which IC50 does the source give for `CN1CCC(n2nc(NCc3nc4cc(SC(F)(F)F)ccc4[nH]3)c3ncc(C4CC4)nc32)CC1` [Example 27, 6-cyclopropyl-1-(1-methylpiperidin-4-yl)-N-({5-[(trifluoromethyl)sulfanyl]-1H-benzimidazol-2-yl}methyl)-1H-pyrazolo[3,4-b]pyrazin-3-amine] here?
The IC50 was over 20 µM.

How did the IC50 turn out when `OCCn1nc(NCc2nc3ccccc3[nH]2)c2ncc(C3CC3)nc21` [Example 66, 2-(3-{[(1H-benzimidazol-2-yl)methyl]amino}-6-cyclopropyl-1H-pyrazolo[3,4-b]pyrazin-1-yl)ethan-1-ol] was run?
Its IC50 is over 20 µM.

With `c1ccc2[nH]c(CNc3nn(C4CCOC4)c4nc(C5CC5)cnc34)nc2c1` (racemic) [Example 10, (±)-N-[(1H-benzimidazol-2-yl)methyl]-6-cyclopropyl-1-[oxolan-3-yl]-1H-pyrazolo[3,4-b]pyrazin-3-amine] as the compound, how does the IC50 read?
Its IC50 is over 20 µM.

How did the IC50 turn out when `CC1(C)CC(n2nc(NCc3nc4ccccc4[nH]3)c3ncc(C4CC4)nc32)CC(C)(C)O1` [Example 52, N-[(1H-benzimidazol-2-yl)methyl]-6-cyclopropyl-1-(2,2,6,6-tetramethyloxan-4-yl)-1H-pyrazolo[3,4-b]pyrazin-3-amine] was run?
Its IC50 is over 20 µM.

For `O[C@H]1C[C@H](Cn2nc(NCc3nc4ccccc4[nH]3)c3ncc(C4CC4)nc32)C1` [Example 70, trans-3-[(3-{[(1H-benzimidazol-2-yl)methyl]amino}-6-cyclopropyl-1H-pyrazolo[3,4-b]pyrazin-1-yl)methyl]cyclobutan-1-ol], which IC50 is on record?
The IC50 was over 20 µM.

`CC(C)(O)Cn1nc(NCc2nc3ccccc3[nH]2)c2ncc(C3CC3)nc21` [Example 69, 1-(3-{[(1H-benzimidazol-2-yl)methyl]amino}-6-cyclopropyl-1H-pyrazolo[3,4-b]pyrazin-1-yl)-2-methylpropan-2-ol] was tested. Which IC50 did it give?
The IC50 was over 20 µM.

With `c1ccc2[nH]c(CNc3nn(C4CC5(COC5)C4)c4nc(C5CC5)cnc34)nc2c1` [Example 54, N-[(1H-benzimidazol-2-yl)methyl]-6-cyclopropyl-1-(2-oxaspiro[3.3]heptan-6-yl)-1H-pyrazolo[3,4-b]pyrazin-3-amine] as the compound, how does the IC50 read?
Its IC50 is over 20 µM.

With `CC(C)(C)OC(=O)N1CCC(n2nc(NCc3nc4ccccc4[nH]3)c3ncc(C4CC4)nc32)CC1` [Example 11, tert-butyl 4-(3-{[(1H-benzimidazol-2-yl)methyl]amino}-6-cyclopropyl-1H-pyrazolo[3,4-b]pyrazin-1-yl)piperidine-1-carboxylate] as the compound, how does the IC50 read?
Its IC50 is over 20 µM.

For `Cc1cnc2c(NCc3nc4ccccc4[nH]3)nn(C3CCN(C)CC3)c2n1` [Example 77, N-[(1H-benzimidazol-2-yl)methyl]-6-methyl-1-(1-methylpiperidin-4-yl)-1H-pyrazolo[3,4-b]pyrazin-3-amine], which IC50 is on record?
Its IC50 is over 20 µM.

How did the IC50 turn out when `O[C@H]1CC[C@H](n2nc(NCc3nc4cc(F)ccc4[nH]3)c3ncc(C4CC4)nc32)CC1` [Example 56, trans-4-(6-cyclopropyl-3-{[(5-fluoro-1H-benzimidazol-2-yl)methyl]amino}-1H-pyrazolo[3,4-b]pyrazin-1-yl)cyclohexan-1-ol] was run?
The IC50 was over 20 µM.

For `CC(CCN(C)C)n1nc(NCc2nc3ccccc3[nH]2)c2ncc(C3CC3)nc21` (single isomer, unassigned) [Example 63, (+) or (−)-N-[(1H-benzimidazol-2-yl)methyl]-6-cyclopropyl-1-[4-(dimethylamino)butan-2-yl]-1H-pyrazolo[3,4-b]pyrazin-3-amine], which IC50 is on record?
The IC50 was over 20 µM.

With `CC(CCN(C)C)n1nc(NCc2nc3ccccc3[nH]2)c2ncc(C3CC3)nc21` (racemic) [Example 62, (±)-N-[(1H-benzimidazol-2-yl)methyl]-6-cyclopropyl-1-[4-(dimethylamino)butan-2-yl]-1H-pyrazolo[3,4-b]pyrazin-3-amine] as the compound, how does the IC50 read?
The IC50 was over 20 µM.

`c1ccc2[nH]c(CNc3nn(C4COC4)c4nc(C5CC5)cnc34)nc2c1` [Example 55, N-[(1H-benzimidazol-2-yl)methyl]-6-cyclopropyl-1-(oxetan-3-yl)-1H-pyrazolo[3,4-b]pyrazin-3-amine] was tested. Which IC50 did it give?
The IC50 was over 20 µM.

`OC1(Cn2nc(NCc3nc4ccccc4[nH]3)c3ncc(C4CC4)nc32)CCC1` [Example 72, 1-[(3-{[(1H-benzimidazol-2-yl)methyl]amino}-6-cyclopropyl-1H-pyrazolo[3,4-b]pyrazin-1-yl)methyl]cyclobutan-1-ol] was tested. Which IC50 did it give?
Its IC50 is over 20 µM.

With `CN1CCC(n2nc(NCc3nc4c(C(F)(F)F)cccc4[nH]3)c3ncc(C4CC4)nc32)CC1` [Example 7, 6-cyclopropyl-1-(1-methylpiperidin-4-yl)-N-{[4-(trifluoromethyl)-1H-benzimidazol-2-yl]methyl}-1H-pyrazolo[3,4-b]pyrazin-3-amine] as the compound, how does the IC50 read?
The IC50 was over 20 µM.

With `COCCn1nc(NCc2nc3ccccc3[nH]2)c2ncc(C3CC3)nc21` [Example 65, N-[(1H-benzimidazol-2-yl)methyl]-6-cyclopropyl-1-(2-methoxyethyl)-1H-pyrazolo[3,4-b]pyrazin-3-amine] as the compound, how does the IC50 read?
Its IC50 is over 20 µM.

How did the IC50 turn out when `COCCCn1nc(NCc2nc3ccccc3[nH]2)c2ncc(C3CC3)nc21` [Example 61, N-[(1H-benzimidazol-2-yl)methyl]-6-cyclopropyl-1-(3-methoxypropyl)-1H-pyrazolo[3,4-b]pyrazin-3-amine] was run?
The IC50 was over 20 µM.

How did the IC50 turn out when `OCCCn1nc(NCc2nc3ccccc3[nH]2)c2ncc(C3CC3)nc21` [Example 60, 3-(3-{[(1H-benzimidazol-2-yl)methyl]amino}-6-cyclopropyl-1H-pyrazolo[3,4-b]pyrazin-1-yl)propan-1-ol] was run?
The IC50 was over 20 µM.

Which IC50 does the source give for `Cc1ccc2[nH]c(CNc3nn(C4CCN(C)CC4)c4nc(C5CC5)cnc34)nc2c1` [Example 6, 6-cyclopropyl-N-[(5-methyl-1H-benzimidazol-2-yl)methyl]-1-(1-methylpiperidin-4-yl)-1H-pyrazolo[3,4-b]pyrazin-3-amine] here?
Its IC50 is at least 12.7 µM.

`c1ccc2[nH]c(CNc3nn(CC4CCC4)c4nc(C5CC5)cnc34)nc2c1` [Example 75, N-[(1H-benzimidazol-2-yl)methyl]-1-(cyclobutylmethyl)-6-cyclopropyl-1H-pyrazolo[3,4-b]pyrazin-3-amine] was tested. Which IC50 did it give?
The IC50 was over 20 µM.

`CC1COCCC1n1nc(NCc2nc3ccccc3[nH]2)c2ncc(C3CC3)nc21` (racemic) [Example 42, (±)-cis/trans-N-[(1H-benzimidazol-2-yl)methyl]-6-cyclopropyl-1-(3-methyloxan-4-yl)-1H-pyrazolo[3,4-b]pyrazin-3-amine] was tested. Which IC50 did it give?
The IC50 was over 20 µM.

How did the IC50 turn out when `CN1CCC(n2nc(NCc3nc4ccccc4[nH]3)c3ncc(C4CC4)nc32)C1` (single isomer, unassigned) [Example 79, (−) or (+)-N-[(1H-benzimidazol-2-yl)methyl]-6-cyclopropyl-1-(1-methylpyrrolidin-3-yl)-1H-pyrazolo[3,4-b]pyrazin-3-amine] was run?
The IC50 was over 20 µM.

With `CC(CCN(C)C)n1nc(NCc2nc3ccccc3[nH]2)c2ncc(C3CC3)nc21` (single isomer, unassigned) [Example 64, (−) or(+)-N-[(1H-benzimidazol-2-yl)methyl]-6-cyclopropyl-1-[4-(dimethylamino)butan-2-yl]-1H-pyrazolo[3,4-b]pyrazin-3-amine] as the compound, how does the IC50 read?
The IC50 was over 20 µM.

`FC1(F)CCC(n2nc(NCc3nc4ccccc4[nH]3)c3ncc(C4CC4)nc32)CC1` [Example 36, N-[(1H-benzimidazol-2-yl)methyl]-6-cyclopropyl-1-(4,4-difluorocyclohexyl)-1H-pyrazolo[3,4-b]pyrazin-3-amine] was tested. Which IC50 did it give?
The IC50 was over 20 µM.

How did the IC50 turn out when `OC1(Cn2nc(NCc3nc4ccccc4[nH]3)c3ncc(C4CC4)nc32)CCCC1` [Example 73, 1-[(3-{[(1H-benzimidazol-2-yl)methyl]amino}-6-cyclopropyl-1H-pyrazolo[3,4-b]pyrazin-1-yl)methyl]cyclopentan-1-ol] was run?
Its IC50 is over 20 µM.

Which IC50 does the source give for `OCC1(Cn2nc(NCc3nc4ccccc4[nH]3)c3ncc(C4CC4)nc32)CCC1` [Example 74, {1-[(3-{[(1H-benzimidazol-2-yl)methyl]amino}-6-cyclopropyl-1H-pyrazolo[3,4-b]pyrazin-1-yl)methyl]cyclobutyl}methanol] here?
Its IC50 is over 20 µM.
